Data set [1] deals with cellular DUB activity (HCT-116 cells). As to the kind of experiment: Cellular DUB activity, Ub-AMC cleavage in lysates of treated cells. It is filed as cell-based. Conditions: b-AP15 treated cells. From the text:
b-AP15 comprises an α-β dienone entity with two sterically accessible β carbons. A structurally similar pharmacophore has been earlier described to be comprised by a class of ubiquitin isopeptidase inhibitors (21). […] In the opinion of the present inventors the similarities in pharmacophore structure and the data showing that b-AP15 inhibits proteasome activity independent of the 20S CP indicate that b-AP15 represents a novel class of proteasome inhibitors that block the deubiquitinating activity of the 19S RP.
HTC-116 cells were treated for 3 h with b-AP15 (1 μM) (FIG. 10). Lysates treated with 10 mM N-ethylmaleimide (NEM) were included as a control for total DUB inhibition. DUB activity was determined from cell lysates by measuring cleavage of the fluorogenic substrate ubiquitin-7-amido-4-methylcoumarin (Ub-AMC).

For data set [2], the target named is T1, 19S RP (Homo sapiens, UniProt P54578+Q9Y5K5).
T1 construct: purchased Boston Biochem E-366
As to the kind of experiment: Ub-GFP cleavage assay with 19S RP. It is filed as biochemical. As to the method: (§1) To this end the ability of b-AP15 to inhibit cleavage of recombinant ubiquitin-GFP was assessed. Recombinant ubiquitin-GFP is a substrate for 19S RP DUB activity (22). […] The type of ubiquitin bonds present in the polyubiquitin chain determines the fate of an ubiquitin-modified substrate. K48 linked polyubiquitin chains generally targets conjoined proteins for degradation (23), whereas K63 linked chains are involved in non-proteolytic roles including DNA repair (24) and mitotic chromosome segregation (25). […] The inhibition of ubiquitin chain disassembly observed could account for the accumulation of high molecular weight ubiquitin conjugates in b-AP15 treated cells.
(§2) The recombinant Ub-GFP plasmid pet19b Ub-M-GFP was generated as described (42). In brief recombinant Ub-GFP was purified from BL21 E. coli cells by His affinity purification. For cleavage assays 19S RP (25 nM) was incubated with 10 mM NEM, 250 μM TPEN or 50 μM b-AP15 for 10 min followed by the addition of recombinant Ub-GFP (200 nM). […] The level of Ub-GFP cleavage or ubiquitin disassembly was determined by immunoblotting with anti ubiquitin antibodies. […] The cleavage of ubiquitinated Hdm2 substrate and ubiquitinated Hdm2 was determined by immunoblotting with anti-Hdm2 antibodies. […]

Data set [3] addresses T1, 19S RP. Description: Ubiquitin chain disassembly of K48/K63 linked ubiquitin tetramers by 19S RP. It is filed as biochemical. As to the method: as §1, §2
Data set [4] concerns non-proteasomal DUBs (UCH-L1, UCH-L3, USP2CD, USP7CD, USP8CD, BAP1). Description: Recombinant non-proteasomal DUBs with ubiquitin-AMC, % activity. It is filed as biochemical. As to the method: In vitro proteasome activity assays using 20S CP (2 nM) (Boston Biochem) were performed at 37° C. in 100-μl reaction buffer (25 mM Hepes, 0.5 mM EDTA, 0.03% SDS). Samples were incubated for 10 min with indicated compound followed by addition of 10 μM Suc-LLVY-AMC, Z-LLE-AMC or Boc-LRR-AMC for the detection of chymotrypsin-like, caspase-like and trypsin-like activity respectively. For DUB inhibition assays 19S RP (5 nM), 26S (5 nM) UCH-L1 (5 nM), UCH-L3 (0.3 nM), USP2CD (5 nM) USP7CD (5 nM) USP8CD (5 nM) and BAP1 (5 nM) were incubated with b-AP15 followed by addition of ubiquitin-AMC (1000 nM). Fluorescence was monitored using Wallac Multilabel counter or Tecan Infinite M1000 equipped with 360 nm excitation and 460 nm emission filters. Substrate overlay assays. Native gel electrophoresis was performed as described (41). In brief 4 μg of purified 26S proteasome (Boston Biochem) was mixed with 10 or 50 μM b-AP15 and incubated at 37° C. for 10 min. Samples were resolved on 4% non-denaturing PAGE. Gels were submerged in assay buffer (20 mM Tris-HCL, 5 mM MgCl2, 1 mM ATP, 0.1 mM Suc-LLVY-AMC) and proteasomes were visualized under UV illumination.
HCT-116 cells were treated for 3 h with b-AP15 (1 μM) and the proteasomes were affinity purified (FIG. 12a). […] Recombinant non-proteosomal DUBs were treated with b-AP15 and % activity determined. […]

Data set [5] has as its system HCT-116 cells. Description: Immunoblot of DNA damage markers (phosphorylated p53, H2AX). It is filed as cell-based. Here is the method:
The turnover of many cell cycle regulatory proteins is controlled by the UPS including inhibitors of the cyclin-dependent kinases p21 Cip1, p27 Kip1 and the tumor suppressor p53 (4). Treatment with b-AP15 increased their levels in a dose dependent manner.
HCT-116 cells were treated with b-AP15 or doxorubicin (100 nM, as a positive control for genotoxic stress for 18 h) (FIG. 5). Cell lysates were immuno-blotted with antibodies for phosphorylated p53 and histone H2 Ax marker for DNA damage of for total levels of p53 and β-actin as loading controls.
On the technique in general: In western blotting, separated proteins are transferred to a membrane and probed.

Consider `C=CC(=O)N1C/C(=C\c2ccc([N+](=O)[O-])cc2)C(=O)/C(=C/c2ccc([N+](=O)[O-])cc2)C1` [b-AP15], for which, in data set [1], the “cellular DUB activity (Ub-AMC cleavage)” value is listed as “no reduction in Ub-AMC cleavage”. Besides, the “cleavage of Ub-GFP by 19S RP” value in data set [2] is recorded as “effectively inhibited”. The “19S RP processing of K48 and K63 linked ubiquitin tetramers” value in data set [3] was “inhibited 19S RP processing of both K48 and K63 linked ubiquitin tetramers”. For the same compound, the “inhibition of recombinant non-proteasomal DUBs” value in data set [4] was “does not inhibit non-proteasomal DUBs”. The “level of DNA damage markers phosphorylated p53 (Ser 15) and H2AX (Ser 139)” value in data set [5] is reported as “no increase was observed”.

For the origin of these results see patent US9856511B2, “Protease deubiquitinating inhibitor screening” (priority 2011, dated 2018).
